From BindingDB's records for doi:10.1124/jpet.102.047092 (Case Western Reserve University, 2003)

What was measured:
[1] = molecular target: T1, Muscarinic acetylcholine receptor M1 (Homo sapiens, UniProt P11229)
T1 sequence (P11229 whole entry): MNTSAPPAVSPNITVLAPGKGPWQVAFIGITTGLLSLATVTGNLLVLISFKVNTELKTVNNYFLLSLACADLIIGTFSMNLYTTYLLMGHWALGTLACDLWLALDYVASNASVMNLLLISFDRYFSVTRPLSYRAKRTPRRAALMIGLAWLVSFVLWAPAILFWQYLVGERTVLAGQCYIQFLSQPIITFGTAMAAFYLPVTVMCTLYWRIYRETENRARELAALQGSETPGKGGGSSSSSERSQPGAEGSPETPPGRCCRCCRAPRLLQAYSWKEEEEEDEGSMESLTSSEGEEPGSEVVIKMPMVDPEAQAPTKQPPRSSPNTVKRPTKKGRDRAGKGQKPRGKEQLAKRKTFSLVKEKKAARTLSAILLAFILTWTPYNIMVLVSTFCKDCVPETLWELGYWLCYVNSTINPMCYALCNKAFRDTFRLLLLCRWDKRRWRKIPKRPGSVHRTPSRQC

[2] = molecular target: T2, Alpha-2C adrenergic receptor (Homo sapiens, UniProt P18825)
T2 sequence (P18825 whole entry): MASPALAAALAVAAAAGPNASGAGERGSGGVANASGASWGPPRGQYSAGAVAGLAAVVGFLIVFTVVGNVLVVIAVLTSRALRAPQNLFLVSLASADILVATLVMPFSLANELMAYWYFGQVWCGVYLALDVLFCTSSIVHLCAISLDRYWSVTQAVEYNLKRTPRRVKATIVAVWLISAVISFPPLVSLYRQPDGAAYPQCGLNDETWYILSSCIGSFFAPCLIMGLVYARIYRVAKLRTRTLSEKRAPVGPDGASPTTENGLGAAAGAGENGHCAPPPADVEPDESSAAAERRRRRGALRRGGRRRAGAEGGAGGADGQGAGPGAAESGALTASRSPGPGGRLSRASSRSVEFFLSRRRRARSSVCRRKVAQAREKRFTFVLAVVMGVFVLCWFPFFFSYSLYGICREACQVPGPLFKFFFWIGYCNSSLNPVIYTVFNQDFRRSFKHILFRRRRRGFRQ

[3] = molecular target: Sodium-dependent noradrenaline transporter (Homo sapiens, UniProt P23975)
[4] = molecular target: Mu-type opioid receptor (Homo sapiens, UniProt P35372)
[5] = molecular target: 5-hydroxytryptamine receptor 7 (Homo sapiens, UniProt P34969)
[6] = molecular target: T3, 5-hydroxytryptamine receptor 1A (Homo sapiens, UniProt P08908)
T3 sequence (P08908 whole entry): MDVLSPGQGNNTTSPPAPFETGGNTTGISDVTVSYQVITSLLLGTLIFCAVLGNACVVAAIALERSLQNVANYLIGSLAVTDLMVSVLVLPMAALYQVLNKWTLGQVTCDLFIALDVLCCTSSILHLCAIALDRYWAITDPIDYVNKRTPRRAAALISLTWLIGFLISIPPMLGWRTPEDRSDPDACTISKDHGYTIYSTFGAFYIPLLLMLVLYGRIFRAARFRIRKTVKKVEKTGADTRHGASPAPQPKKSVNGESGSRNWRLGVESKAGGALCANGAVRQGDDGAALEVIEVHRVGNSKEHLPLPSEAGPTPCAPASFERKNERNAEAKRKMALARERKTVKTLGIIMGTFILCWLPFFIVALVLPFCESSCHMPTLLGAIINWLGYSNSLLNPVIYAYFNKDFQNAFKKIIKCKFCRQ

[7] = molecular target: T4, Muscarinic acetylcholine receptor M2 (Homo sapiens, UniProt P08172)
T4 sequence (P08172 whole entry): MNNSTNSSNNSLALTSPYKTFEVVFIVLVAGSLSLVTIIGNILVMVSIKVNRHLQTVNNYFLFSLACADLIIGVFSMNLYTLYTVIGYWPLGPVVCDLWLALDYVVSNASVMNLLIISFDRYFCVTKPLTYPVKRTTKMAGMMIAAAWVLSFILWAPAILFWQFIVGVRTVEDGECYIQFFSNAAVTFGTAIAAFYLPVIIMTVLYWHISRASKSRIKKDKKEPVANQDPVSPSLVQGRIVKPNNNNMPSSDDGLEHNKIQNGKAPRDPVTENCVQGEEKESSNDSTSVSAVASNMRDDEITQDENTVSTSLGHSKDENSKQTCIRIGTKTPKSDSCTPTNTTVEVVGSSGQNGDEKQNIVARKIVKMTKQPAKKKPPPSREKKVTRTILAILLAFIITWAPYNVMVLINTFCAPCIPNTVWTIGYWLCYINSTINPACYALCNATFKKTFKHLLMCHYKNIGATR

[8] = molecular target: D(1B) dopamine receptor (Homo sapiens, UniProt P21918)
[9] = molecular target: D(2) dopamine receptor (Homo sapiens, UniProt P14416)
[10] = molecular target: T5, Muscarinic acetylcholine receptor M5 (Homo sapiens, UniProt P08912)
T5 sequence (P08912 whole entry): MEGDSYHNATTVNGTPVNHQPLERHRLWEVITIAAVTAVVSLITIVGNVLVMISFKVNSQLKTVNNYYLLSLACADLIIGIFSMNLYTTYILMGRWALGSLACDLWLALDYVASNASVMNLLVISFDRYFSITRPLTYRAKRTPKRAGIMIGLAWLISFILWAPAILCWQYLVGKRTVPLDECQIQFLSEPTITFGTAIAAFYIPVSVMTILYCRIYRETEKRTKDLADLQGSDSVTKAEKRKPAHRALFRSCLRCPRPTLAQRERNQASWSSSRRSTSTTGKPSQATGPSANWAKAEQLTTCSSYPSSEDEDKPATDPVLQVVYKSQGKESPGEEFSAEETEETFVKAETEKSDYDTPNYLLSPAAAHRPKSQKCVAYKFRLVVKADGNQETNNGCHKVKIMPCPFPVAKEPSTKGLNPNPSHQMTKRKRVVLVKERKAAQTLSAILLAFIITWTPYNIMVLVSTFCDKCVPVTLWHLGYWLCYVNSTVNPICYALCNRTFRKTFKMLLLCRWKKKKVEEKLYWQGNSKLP

[11] = molecular target: Gamma-aminobutyric acid receptor subunit alpha-1 (Rattus norvegicus, UniProt P62813)

Measured: Ki

Sequence of Sodium-dependent noradrenaline transporter (P23975 whole entry): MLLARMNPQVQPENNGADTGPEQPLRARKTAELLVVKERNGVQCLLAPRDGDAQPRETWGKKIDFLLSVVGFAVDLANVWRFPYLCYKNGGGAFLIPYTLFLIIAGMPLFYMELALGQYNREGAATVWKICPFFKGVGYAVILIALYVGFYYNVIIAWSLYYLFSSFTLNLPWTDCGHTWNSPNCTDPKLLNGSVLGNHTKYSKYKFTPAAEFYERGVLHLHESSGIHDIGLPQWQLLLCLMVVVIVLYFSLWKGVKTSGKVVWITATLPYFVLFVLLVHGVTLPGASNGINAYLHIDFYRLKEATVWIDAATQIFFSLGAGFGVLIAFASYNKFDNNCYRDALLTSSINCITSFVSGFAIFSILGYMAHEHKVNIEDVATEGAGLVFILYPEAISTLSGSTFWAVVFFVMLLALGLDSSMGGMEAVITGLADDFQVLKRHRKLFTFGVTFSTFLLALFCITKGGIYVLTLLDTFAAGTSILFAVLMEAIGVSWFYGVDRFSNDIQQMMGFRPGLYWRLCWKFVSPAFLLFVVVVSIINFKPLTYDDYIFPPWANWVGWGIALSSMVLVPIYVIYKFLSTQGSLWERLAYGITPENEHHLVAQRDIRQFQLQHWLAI
Sequence of Mu-type opioid receptor (P35372 whole entry): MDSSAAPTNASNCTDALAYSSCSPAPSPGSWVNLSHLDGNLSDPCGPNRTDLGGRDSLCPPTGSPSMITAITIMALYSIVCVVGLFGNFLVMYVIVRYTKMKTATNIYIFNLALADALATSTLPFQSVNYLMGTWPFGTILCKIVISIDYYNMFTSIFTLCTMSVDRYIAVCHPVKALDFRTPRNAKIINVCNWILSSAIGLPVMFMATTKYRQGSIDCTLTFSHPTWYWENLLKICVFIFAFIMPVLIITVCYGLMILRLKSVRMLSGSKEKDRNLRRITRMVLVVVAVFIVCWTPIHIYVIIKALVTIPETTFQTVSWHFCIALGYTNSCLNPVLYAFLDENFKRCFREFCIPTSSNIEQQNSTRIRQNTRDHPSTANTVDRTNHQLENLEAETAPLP
Sequence of Gamma-aminobutyric acid receptor subunit alpha-1 (P62813 whole entry): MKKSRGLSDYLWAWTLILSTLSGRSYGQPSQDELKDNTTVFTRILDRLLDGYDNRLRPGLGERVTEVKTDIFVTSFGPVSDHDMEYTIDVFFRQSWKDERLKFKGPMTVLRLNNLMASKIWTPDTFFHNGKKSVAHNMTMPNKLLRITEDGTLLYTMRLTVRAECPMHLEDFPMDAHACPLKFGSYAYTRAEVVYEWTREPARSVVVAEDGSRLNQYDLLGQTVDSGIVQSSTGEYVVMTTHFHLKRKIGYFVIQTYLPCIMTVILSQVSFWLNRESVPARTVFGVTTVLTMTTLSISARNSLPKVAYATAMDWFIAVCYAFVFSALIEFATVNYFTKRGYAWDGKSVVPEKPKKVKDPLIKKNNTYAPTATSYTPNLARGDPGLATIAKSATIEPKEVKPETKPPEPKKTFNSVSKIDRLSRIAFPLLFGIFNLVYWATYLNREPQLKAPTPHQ
Sequence of D(1B) dopamine receptor (P21918 whole entry): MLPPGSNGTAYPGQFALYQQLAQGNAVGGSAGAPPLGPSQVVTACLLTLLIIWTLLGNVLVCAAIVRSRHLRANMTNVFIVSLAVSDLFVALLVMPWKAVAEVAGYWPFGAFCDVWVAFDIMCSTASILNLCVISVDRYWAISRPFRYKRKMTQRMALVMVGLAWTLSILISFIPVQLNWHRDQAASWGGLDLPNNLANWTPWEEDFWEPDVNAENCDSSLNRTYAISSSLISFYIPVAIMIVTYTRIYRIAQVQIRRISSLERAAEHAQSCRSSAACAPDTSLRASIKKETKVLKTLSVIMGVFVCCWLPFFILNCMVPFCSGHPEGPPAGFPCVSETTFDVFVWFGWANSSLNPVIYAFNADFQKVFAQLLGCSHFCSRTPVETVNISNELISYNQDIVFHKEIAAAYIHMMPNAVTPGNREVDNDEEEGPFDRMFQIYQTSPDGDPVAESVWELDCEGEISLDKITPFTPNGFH
Sequence of D(2) dopamine receptor (P14416 whole entry): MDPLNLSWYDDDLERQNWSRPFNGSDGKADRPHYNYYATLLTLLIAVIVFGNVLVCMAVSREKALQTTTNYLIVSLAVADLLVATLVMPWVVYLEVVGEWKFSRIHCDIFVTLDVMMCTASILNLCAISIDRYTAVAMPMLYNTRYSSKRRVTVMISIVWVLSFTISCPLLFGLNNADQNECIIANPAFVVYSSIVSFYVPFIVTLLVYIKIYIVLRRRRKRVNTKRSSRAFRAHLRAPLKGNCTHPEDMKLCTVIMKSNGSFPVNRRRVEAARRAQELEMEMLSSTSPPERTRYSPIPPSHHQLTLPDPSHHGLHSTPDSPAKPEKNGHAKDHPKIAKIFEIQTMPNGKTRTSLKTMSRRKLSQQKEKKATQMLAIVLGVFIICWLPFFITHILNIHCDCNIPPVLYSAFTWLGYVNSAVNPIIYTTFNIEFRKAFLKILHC
Sequence of 5-hydroxytryptamine receptor 7 (P34969 whole entry): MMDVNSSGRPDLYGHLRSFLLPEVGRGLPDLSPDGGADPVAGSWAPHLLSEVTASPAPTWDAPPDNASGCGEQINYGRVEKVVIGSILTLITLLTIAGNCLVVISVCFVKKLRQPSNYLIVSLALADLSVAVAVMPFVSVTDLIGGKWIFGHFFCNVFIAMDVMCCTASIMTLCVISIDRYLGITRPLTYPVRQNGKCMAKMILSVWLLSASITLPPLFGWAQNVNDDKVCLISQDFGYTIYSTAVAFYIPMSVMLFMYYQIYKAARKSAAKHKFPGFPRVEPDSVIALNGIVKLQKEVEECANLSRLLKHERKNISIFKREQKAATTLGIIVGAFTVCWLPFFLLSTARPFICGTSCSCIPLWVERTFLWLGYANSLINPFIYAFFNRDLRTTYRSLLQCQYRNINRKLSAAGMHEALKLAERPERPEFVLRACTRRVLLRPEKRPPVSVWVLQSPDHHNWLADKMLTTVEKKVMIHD

N[C@@H](CCS)C(=O)O (racemic) [CAS_778]
> 10 µM: all assays above

N[C@@H](CCS(=O)O)C(=O)O [L-homocysteine sulfinic acid]
> 10 µM: all assays above

NC(CS(=O)O)C(=O)O (configuration not stated) [CAS_109]
> 10 µM: all assays above

CSCC[C@@H](N)C(=O)O [CAS_6137]
> 10 µM: all assays above

N[C@@H](CS)C(=O)O [CAS_5862]
> 10 µM: all assays above

N[C@@H](CCS(=O)(=O)O)C(=O)O (racemic)
> 10 µM: all assays above

NC(CSSCC(N)C(=O)O)C(=O)O (configuration not stated) [CAS_595]
> 10 µM: all assays above

N[C@@H]1CCSC1=O [D-homocysteine thiolactone]
> 10 µM: all assays above

N[C@H](CCS(=O)(=O)O)C(=O)O [D-homocysteic acid]
> 10 µM: all assays above

N[C@H](CS(=O)(=O)O)C(=O)O [L-cysteic acid]
> 10 µM: all assays above

N[C@H]1CCSC1=O [NSC_134505]
> 10 µM: all assays above

N[C@H](CCS(=O)O)C(=O)O [D-homocysteine sulfinic acid]
> 10 µM: all assays above
